The target of assay [1] is T1, rabbit reticulocyte cells-induced 15-lipoxygenase (Oryctolagus cuniculus, UniProt P12530).
T1 construct: rabbit reticulocyte cells-induced 15-lipoxygenase as a test group; from tissue; host or cells: rabbit reticulocytes
T1 sequence (P12530 1-663): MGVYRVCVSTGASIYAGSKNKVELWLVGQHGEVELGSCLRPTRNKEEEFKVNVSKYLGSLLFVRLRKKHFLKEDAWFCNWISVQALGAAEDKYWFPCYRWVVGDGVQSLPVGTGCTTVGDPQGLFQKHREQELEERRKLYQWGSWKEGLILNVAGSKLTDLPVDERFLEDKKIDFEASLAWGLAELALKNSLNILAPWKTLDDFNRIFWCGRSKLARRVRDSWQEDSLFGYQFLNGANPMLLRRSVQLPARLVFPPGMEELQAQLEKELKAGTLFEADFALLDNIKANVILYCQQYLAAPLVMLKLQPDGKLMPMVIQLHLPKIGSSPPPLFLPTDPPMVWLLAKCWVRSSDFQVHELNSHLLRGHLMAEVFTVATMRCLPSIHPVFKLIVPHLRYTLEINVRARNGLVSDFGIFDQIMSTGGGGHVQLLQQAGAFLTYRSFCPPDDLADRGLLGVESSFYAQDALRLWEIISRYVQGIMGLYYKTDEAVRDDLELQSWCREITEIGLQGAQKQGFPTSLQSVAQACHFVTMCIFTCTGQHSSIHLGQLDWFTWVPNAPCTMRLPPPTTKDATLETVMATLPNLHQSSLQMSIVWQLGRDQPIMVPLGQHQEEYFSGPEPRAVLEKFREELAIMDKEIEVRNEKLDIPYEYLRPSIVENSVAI
Description: In-vitro test on inhibitory effect on 15-lipoxygenase (13-HPODE formation, absorbance 660 nm). Type of assay: biochemical. To be noted: compound 10 uM; 260 μM linolenic acid; 4° C.; PBS pH 7.4; read-out: 15-lipoxygenase Inhibitory level at 10 uM (%). The method, then:
(§1) 12-lipoxygenase reacts with arachidonate as a substrate to produce 12-hydroxyeicosatetrenoate (12-HETE) as a product. Accordingly, 12-lipoxygenase activity is evaluated by measuring an amount of generated 12-HETE by spectrometry. Also, 15-lipoxygenase reacts with a linolenic acid as a substrate to produce 13-hydroperoxy-9,11-octadecadienoic acid (13-HPODE) as a product. Accordingly, 15-lipoxygenase activity is evaluated by measuring an amount of generated 13-HPODE by spectrometry.
15-lipoxygenase activity was measured when a concentration of each of the compounds was 10 μM. Each sample was pretreated by using a buffer solution buffer solution (phosphate buffered saline buffer, pH 7.4) at a temperature of 4° C. for 15 minutes, and then 260 μM linolenic acid (a concentration thereof was controlled to be 260 μM during reaction) was added and reacted at a temperature of 4° C. for 10 minutes, and an amount of 13-HPODE as a generated product was measured by absorbance at a wavelength of 660 nm.

For assay [2], the target named is T2, human platelet-induced 12-lipoxygenase (Homo sapiens, UniProt P18054).
T2 construct: human platelet-induced 12-lipoxygenase as a negative control; from tissue; host or cells: human platelets
T2 sequence (P18054 1-663): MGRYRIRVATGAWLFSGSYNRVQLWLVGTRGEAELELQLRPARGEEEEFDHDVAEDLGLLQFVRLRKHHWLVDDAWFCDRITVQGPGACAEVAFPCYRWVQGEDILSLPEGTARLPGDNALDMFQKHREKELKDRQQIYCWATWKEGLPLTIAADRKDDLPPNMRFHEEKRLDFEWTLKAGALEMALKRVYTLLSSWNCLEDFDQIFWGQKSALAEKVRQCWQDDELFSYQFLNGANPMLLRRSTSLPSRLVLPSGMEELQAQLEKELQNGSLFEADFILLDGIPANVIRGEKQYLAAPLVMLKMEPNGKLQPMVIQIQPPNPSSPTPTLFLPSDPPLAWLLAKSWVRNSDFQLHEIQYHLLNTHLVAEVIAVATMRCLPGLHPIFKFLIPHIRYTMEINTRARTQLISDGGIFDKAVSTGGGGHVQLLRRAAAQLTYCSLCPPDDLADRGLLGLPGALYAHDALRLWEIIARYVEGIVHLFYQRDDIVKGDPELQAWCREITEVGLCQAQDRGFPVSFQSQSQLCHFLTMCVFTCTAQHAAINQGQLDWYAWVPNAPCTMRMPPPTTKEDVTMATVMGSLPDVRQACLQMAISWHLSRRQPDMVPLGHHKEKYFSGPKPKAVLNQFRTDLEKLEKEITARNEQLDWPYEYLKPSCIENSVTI
Description: In-vitro test on inhibitory effect on 12-lipoxygenase (12-HETE formation, absorbance 570 nm). Type of assay: biochemical. The following applies: compound 10 uM; 30 μM arachidonate; 25° C.; Tris-HCl pH 7.4; read-out: 12-lipoxygenase Inhibitory level at 10 uM (%). The method, then: as §1
12-lipoxygenase activity was measured when a concentration of each of the compounds was 10 μM. Each sample was pretreated by using a buffer solution (50 mM Tris-HCl, 0.1% Triton X-100, pH 7.4) at a temperature of 25° C. for 15 minutes and then, 30 μM arachidonate (a concentration thereof was controlled to be 30 μM during reaction) was added thereto and reacted at a temperature of 25° C. for 15 minutes, and an amount of 12-HETE as a generated product was measured by absorbance at a wavelength of 570 nm.

The test system of assay [3] is Sprague-Dawley rats having diabetes induced by streptozotocin. Description: Pharmaceutical effect test on diabetic hyperlipidemia in diabetes animal model (streptozotocin). To be noted: 200 mg/kg orally once a day for four weeks. Type of assay: in vivo, rat. The method, then: Sprague-Dawley rats (n=21, 4 weeks, male) were used as lab models (Central Lab. Animal Inc.). Rats (n=14) having diabetes induced by intraperitoneal administration of 50 mg/kg of streptozotocin were used as a test group, and rats (n=7) intraperitoneally administered with only a solvent (100 mM citric acid buffer solution, pH 4.5) were used as a control. Typically, streptozotocin destroys beta cells of the pancreas to induce diabetes, and thus, blood sugar is increased and amounts of cholesterol and triglycerides in serum are increased. 2 days after the administration of streptozotocin, diabetes was induced in the test group. The test group was divided into two groups, and rats of one group were orally administered once a day with 200 mg/kg of (R)-carbamic acid 3-[4-(3,4-dimethoxy-phenyl)-piperazine-1-yl]-3-oxo-1-phenyl-propyl ester for four weeks. The other group was orally administered with 30% polyethylene glycol (PEG) instead of the compound.
After the 4-week administration of the compound and PEG, amounts of total cholesterol and triglycerides in serum of each of the groups were measured and results thereof are shown in FIGS. 1 and 2. In order to measure the amounts of total cholesterol and triglycerides, serum was isolated from the rats and a Hitachi 7600 auto-analyzer was used.

Another assay relates to fibronectin. Description: Pharmaceutical effect test on diabetic nephropathy: fibronectin expression in renal cortex by real-time RT-PCR. Type of assay: in vivo, rat. The following applies: streptozotocin-diabetic rats; 200 mg/kg orally once a day for 4 weeks; untreated diabetic 1.4±0.1 times control. The method, then: Sprague-Dawley rats (n=21, 4 weeks, male) were used as lab models (Central Lab. Animal Inc.). Rats (n=14) having diabetes induced by intraperitoneal administration of 50 mg/kg of streptozotocin were used as a test group, and rats (n=7) intraperitoneally administered with only a solvent (100 mM citric acid buffer solution, pH 4.5) were used as a control. Typically, in rats having diabetes induced by streptozotocin, diabetic nephropathy is induced by hyperglycemia, and one of the symptoms is renal fibrosis, and gene expression of an extracellular matrix protein such as fibronectin is increased. 2 days after the administration of streptozotocin, diabetes was induced in the test group. […]
After the 4-week administration of the compound and PEG, renal cortex tissues were extracted from each of the groups and then, an expression level of fibronectin was measured by a real-time reverse transcription polymerase chain reaction (that is, an amount of mRNA transcribed from fibronectin) (see FIG. 3). The expression level of fibronectin was measured by using a forward primer (5′-[…]-3′; SEQ ID NO: 1) and a reverse primer (5′-[…]-3′; SEQ ID NO: 2). […] For the control, mRNA transcribed from a beta actin gene was used, and measurement results were indicated by dividing an amount of mRNA of fibronectin quantified from the RT-PCT results by an amount of mRNA of beta actin. […]
A general note: In qPCR the cycle at which signal appears reflects the starting amount.

The next assay concerns PAI-1. Description: Pharmaceutical effect test on inflammatory reaction in diabetic nephropathy model: PAI-1 mRNA in renal cortex. To be noted: streptozotocin-diabetic rats; 200 mg/kg orally once a day for 4 weeks; untreated diabetic 1.8±0.1 times control. Type of assay: in vivo, rat.
For the next assay, the system named is MCP-1. Description: Pharmaceutical effect test on inflammatory reaction in diabetic nephropathy model: MCP-1 mRNA in renal cortex. To be noted: streptozotocin-diabetic rats; 200 mg/kg orally once a day for 4 weeks; untreated diabetic 3.4±1.0 times control. Type of assay: in vivo, rat.
A further assay concerns TGF-β1. Description: Pharmaceutical effect test on inflammatory reaction in diabetic nephropathy model: TGF-β1 mRNA in renal cortex. To be noted: streptozotocin-diabetic rats; 200 mg/kg orally once a day for 4 weeks; untreated diabetic 1.6±0.2 times control. Type of assay: in vivo, rat.

The values below come from US8648083B2, “Method of treating diabetic hyperlipidemia or hyperlipidemia with carbamoyloxy arylalkanoyl arylpiperazine compounds” (SK Biopharmaceuticals Co., Ltd., priority 2010, dated 2014).

The structures appear in SMILES notation. Where a name gives a salt, the structure may show the parent alone.

`COc1ccc(N2CCN(C(=O)CC(OC(N)=O)c3ccccc3)CC2)cc1OC` (centres unmarked) [Example 1, carbamic acid 3-[4-(3,4-dimethoxy-phenyl)-piperazine-1-yl]-3-oxo-1-phenyl-propyl ester]: the inhibition at 10 µM in assay [1] was 73%; in assay [2], 10%.
For `COc1ccc(N2CCN(C(=O)CC(OC(N)=O)c3ccc(F)cc3)CC2)cc1OC` (centres unmarked) [Example 2, carbamic acid 3-[4-(3,4-dimethoxy-phenyl)-piperazine-1-yl]-1-(4-fluoro-phenyl)-3-oxo-propyl ester], the inhibition at 10 µM in assay [1] is 69%; in assay [2], -5%.
The corresponding values for `NC(=O)OC(CC(=O)N1CCN(c2ccc3c(c2)OCO3)CC1)c1ccccc1` (centres unmarked) [Example 3, carbamic acid 3-(4-benzo[1,3]dioxol-5-yl-piperazine-1-yl)-3-oxo-1-phenyl-propyl ester] are 85% and -8%.
The corresponding values for `COc1ccc(N2CCN(C(=O)CC(OC(N)=O)c3ccc(C(F)(F)F)cc3)CC2)cc1OC` (centres unmarked) [Example 4, carbamic acid 3-[4-(3,4-dimethoxy-phenyl)-piperazine-1-yl]-1-(4-trifluoromethyl-phenyl)-3-oxo-propyl ester; hydrochloride] are 48% and 0%.
The corresponding values for `COc1ccc(N2CCN(C(=O)CC(OC(N)=O)c3ccc([N+](=O)[O-])cc3)CC2)cc1OC` (centres unmarked) [Example 5, carbamic acid 3-[4-(3,4-dimethoxy-phenyl)-piperazine-1-yl]-1-(4-nitro-phenyl)-3-oxo-propyl ester] are 75% and 0%.
As to `NC(=O)O[C@H](CC(=O)N1CCN(c2ccc(Cl)cc2)CC1)c1ccccc1` [Example 6, (R)-carbamic acid 3-[4-(4-chloro-phenyl)-piperazine-1-yl]-3-oxo-1-phenyl-propyl ester], the results for the inhibition at 10 µM in assay [1] and in assay [2] were 114% and 11%, respectively.
In the same order, the values of `COc1ccc(N2CCN(C(=O)C[C@H](OC(N)=O)c3ccccc3)CC2)cc1OC` [Example 7, (S)-carbamic acid 3-[4-(3,4-dimethoxy-phenyl)-piperazine-1-yl]-3-oxo-1-phenyl-propyl ester] are 69% and 2%.
As for `COc1ccc(N2CCN(C(=O)C[C@@H](OC(N)=O)c3ccccc3)CC2)cc1OC` [Example 8, (R)-carbamic acid 3-[4-(3,4-dimethoxy-phenyl)-piperazine-1-yl]-3-oxo-1-phenyl-propyl ester], the figures for the inhibition at 10 µM in assay [1] and in assay [2] were 79% and 15%, respectively. The “concentration of total cholesterol in serum” value in assay [3] (untreated diabetic 120±13, control 62±5 mg/dl) is 66 ± 9 mg/dL. In assay [3] (untreated diabetic 760±162 mg/dl), the “concentration of triglyceride in serum” value worked out at 126 ± 44 mg/dL. Further, the “expression level of fibronectin of the renal cortex (mRNA / beta actin mRNA) relative to control” value in the assay with fibronectin came out at 1.2±0.1 times. The “expression level of PAI-1 gene in the renal cortex relative to control” value in the assay on PAI-1 worked out at 1.1±0.2 times. The “expression level of MCP-1 gene in the renal cortex relative to control” value in the assay on MCP-1 is recorded as 1.6±0.3 times. Besides, the “expression level of TGF-β1 gene in the renal cortex relative to control” value with TGF-β1 came to 1.3±0.2 times.
Turning to `COc1ccc(N2CCN(C(C)CC(OC(N)=O)c3ccccc3)CC2)cc1OC` (centres unmarked) [Example 9, carbamic acid 3-[4-(3,4-dimethoxy-phenyl)-piperazine-1-yl]-1-phenyl-butyl ester], the figures for the inhibition at 10 µM in assay [1] and in assay [2] were 62% and 0%, respectively.
With `COc1ccc(N2CCN(C(=O)CC(OC(N)=O)c3ccc(Cl)cc3)CC2)cc1OC` (centres unmarked) [Example 10, carbamic acid 3-[4-(3,4-dimethoxy-phenyl)-piperazine-1-yl]-1-(4-chloro-phenyl)-3-oxo-propyl ester], the inhibition at 10 µM in assay [1] is 72%; in assay [2], 7%.
